Data as given in patent US7407745B1, “Method for screening anticancer agent” (Chugai Seiyaku Kabushiki Kaisha, priority 1999, dated 2008).

How the values were obtained:
[1] = system: GAL4-Sp3; test: Reporter assay using the GAL4 binding sequence (pG5-luc), GAL4-Sp3, MG63 cells; type: cell-based, human; conditions: GAL4-Sp3 (full-length Sp3, amino acids 1-653), TSA 500 ng/ml, 24 hours
Text: This yielded pM-Sp1, pM-Sp3, pM-DNSp1, and pM-DNSp3, respectively. Each of the Sp1 and Sp3 genes was amplified by PCR. Specifically, pM-Sp1 production employed Sp1-S (5′-acaggtgagcttga-3′/SEQ ID NO: 4) and Sp1-AS (5′-tcagaagccattgcc-3′/SEQ ID NO: 5) as primers and used pPacSp1 as template for amplification (Kadonaga, J. T. et al., (1987) Cell 51:1079-1090). pM-DNSp1 production employed DNSp1-S (5′-[…]-3′/SEQ ID NO: 6) and DNSp1-AS (5′-gaagcatgcacctgc-3′/SEQ ID NO: 7) as primers and used pM-Sp1 as template for amplification (Kadonaga, J. T. et al., (1987) Cell 51: 1079-1090). pM-Sp3 production employed Sp3-18F (5′-[…]-3′/SEQ ID NO: 8) and Sp3-2R (5′-[…]-3′/SEQ ID NO: 9) as primers and used Marathon-Ready cDNA (Human Fetal Liver) (Clontech, Cat. #7403-1) as template for amplification (Chris, K. et al., (1992) J. Biol. Chem. 12: 4251-4261). pM-DNSp3 production employed Sp3-11F (5′-[…]-3′/SEQ ID NO: 10) and Sp3-2R (SEQ ID NO: 9) as primers and used pM-Sp3 as template for amplification (Chris, K. et al., (1992) J. Biol. Chem. 12: 4251-4261). All PCRs were carried out by performing 30 cycles of 94° C. for 1 minute, 55° C. for 30 seconds, and 72° C. for 30 seconds. The resulting PCR amplified product was inserted into a pM vector and the nucleotide sequence was confirmed using a DNA sequencer, ABI PRISM 355 (Applied Bio System). […]

[2] = system: p21/WAF1/Cip1 promoter; test: Luciferase reporter assay of p21/WAF1/Cip1 promoter (pWWP, pWPdel-BstXI) with dominant negative Sp3, MG63 cells; type: cell-based, human; conditions: pWWP and pWPdel-BstXI reporters, forced expression of DNSp3 (pCMV-DNSp3), TSA 500 ng/ml
[3] = system: Sp1 binding sequence in the p21/WAF1/Cip1 promoter; test: Gel shift assay (EMSA) with nuclear extracts of TSA-treated and untreated MG63 cells; set-up: species or system human; conditions: 500 ng/ml TSA for 24 hours vs untreated
Procedure: First, MG63 cells were incubated at 37° C. in a humidified atmosphere of 5% CO2 using DMEM medium (GIBCO BRL) containing 10% fetal calf serum (GIBCO BRL). Nuclear extracts of these cells were prepared from both TSA-treated and untreated cells, according to the method of Dignam et al. (Dignam, J. D. et al., (1983) Nucleic Acids Res. 11:1475-1489). First, cells cultured in a dish (100 mm) were incubated for 24 hours with 500 ng/ml TSA (Wako). This was then washed twice with cold PBS containing 0.5 mM 4-(2-aminoethyl)benzenesulfonyl fluoride HCl (p-ABSF) (Wako), the cells were scraped from the plate, and suspended in 10 mM Hepes/KOH buffer (pH7.9) containing 10 mM KCl, 1.5 mM MgCl2, 0.5 mM DTT, 5 mM NaF, 5 mM NaVO4, and 0.5 mM p-ABSF. After placing on ice for 10 minutes, the cells were disrupted using a Dounce homogenizer. […]
Next, based on the TSA-dependent promoter sequence (5′-CGGGTCCCGCCTCCTT-3′/SEQ ID NO: 1) located −87 to −72 bp from the transcription start site of the p21/WAF1/Cip1 gene, oligonucleotides (5′-[…]-3′/SEQ ID NO: 2, and 5′-[…]-3′/SEQ ID NO: 3) were synthesized. […] The reaction solution was resolved by electrophoresis on a 6% acrylamide gel and the proteins that bind to the p21/WAF1/Cip1 probe were detected using BAS 2000 (Fujix).

[4] = system: consensus Sp1 binding sequence; test: Luciferase reporter assay of 3xSp1 binding sequence (Sp1-luc, mtSp1-luc) with dominant negative Sp3, MG63 cells; type: cell-based, human
[5] = system: GAL4-Sp3 deletion mutant proteins; test: Reporter assay using the GAL4 binding sequence (pG5-luc), GAL4-Sp3 deletion mutants, MG63 cells; type: cell-based, human; conditions: TSA 500 ng/ml, 24 hours
Text: This yielded pM-Sp1, pM-Sp3, pM-DNSp1, and pM-DNSp3, respectively. Each of the Sp1 and Sp3 genes was amplified by PCR. Specifically, pM-Sp1 production employed Sp1-S (5′-acaggtgagcttga-3′/SEQ ID NO: 4) and Sp1-AS (5′-tcagaagccattgcc-3′/SEQ ID NO: 5) as primers and used pPacSp1 as template for amplification (Kadonaga, J. T. et al., (1987) Cell 51:1079-1090). pM-DNSp1 production employed DNSp1-S (5′-[…]-3′/SEQ ID NO: 6) and DNSp1-AS (5′-gaagcatgcacctgc-3′/SEQ ID NO: 7) as primers and used pM-Sp1 as template for amplification (Kadonaga, J. T. et al., (1987) Cell 51: 1079-1090). pM-Sp3 production employed Sp3-18F (5′-[…]-3′/SEQ ID NO: 8) and Sp3-2R (5′-[…]-3′/SEQ ID NO: 9) as primers and used Marathon-Ready cDNA (Human Fetal Liver) (Clontech, Cat. #7403-1) as template for amplification (Chris, K. et al., (1992) J. Biol. Chem. 12: 4251-4261). pM-DNSp3 production employed Sp3-11F (5′-[…]-3′/SEQ ID NO: 10) and Sp3-2R (SEQ ID NO: 9) as primers and used pM-Sp3 as template for amplification (Chris, K. et al., (1992) J. Biol. Chem. 12: 4251-4261). All PCRs were carried out by performing 30 cycles of 94° C. for 1 minute, 55° C. for 30 seconds, and 72° C. for 30 seconds. The resulting PCR amplified product was inserted into a pM vector and the nucleotide sequence was confirmed using a DNA sequencer, ABI PRISM 355 (Applied Bio System). As a control for the transfection test, pM that only expresses the GAL4 DNA binding domain was employed. The reporter plasmid (pG5-luc) used to indicate the dependence of transcriptional activation, on GAL4 was pGL3-Basic Vector (Promega), which carried the 5×GAL4 binding sequence, E1B minimum promoter, and TATA sequence, upstream of the luciferase gene.
The expression vector described above encoding various Sp1 or Sp3 GAL4 fusion proteins and the abovementioned vector carrying a luciferase reporter gene downstream of the consensus 5×GAL4 binding sequence were cotransfected into MG63 cells using SuperFect following the method by QIAGEN. Namely, cells were seeded at a density of 0.8×10^5 cells/well in a 12-well plate. After 24 hours, a pre-mixed reaction solution containing 0.5 μg of reporter plasmid, 2.5 μg of expression vector, and SuperFect were added to the MG63 cells and the mixture was reacted for 2 hours. Subsequently, the cells were cultured for 24 hours under normal culture conditions, cultured for another 24 hours with or without (control) 500 ng/ml of TSA, and then, the cells were lysed. Using luciferase substrate (Promega), luciferase activity of the cell lysates was measured using LB-96P (Berthold). The measured values were normalized and were expressed as activity per amount of protein. Transcriptional induction due to TSA treatment was calculated as a ratio with respect to the TSA-untreated control value (activation amplification by TSA).
Next, reporter assay was performed using various Sp3 deletion mutants fused to the GAL4 DNA binding domain in order to identify the TSA responsive region of Sp3. First, pM-Sp3 (1-398), pM-Sp3 (81-398), pM-Sp3 (161-398), pM-Sp3 (241-398), pM-Sp3 (1-80), pM-Sp3 (1-160), pM-Sp3 (1-240), and pM-Sp3 (1-320) were prepared. They respectively carry regions corresponding to the indicated amino acid numbers. […]
As a control for the transfection test, pM expressing only the GAL4 DNA binding domain was used. […] Transfection using these genes followed the same method as described above, and the occurrence of transcriptional induction due to TSA treatment in these mutants was monitored.

[6] = system: all-trans-retinoic acid resistant acute promyelocytic leukemia; conditions: in combination with all-trans retinoic acid; cited from earlier work

## CC(/C=C/C(=O)NO)=C\[C@@H](C)C(=O)c1ccc(N(C)C)cc1 [TSA, Trichostatin A]
[1]
  transcriptional induction of the luciferase gene by TSA (ratio to TSA-untreated control): strong transcriptional induction
[2]
  transcriptional induction of p21/WAF1/Cip1 by TSA: remarkably repressed by DNSp3
[3]
  amount of DNA bound by Sp1 and Sp3: a difference in the amount of DNA bound by Sp1 and Sp3 due to the presence or absence of TSA treatment could not be observed
[4]; Sp1-luc reporter, forced expression of DNSp3, TSA 500 ng/ml
  TSA dependent transcriptional induction driven by the consensus Sp1 binding sequence: marked repression
[4]; mtSp1-luc reporter (mutated Sp1 binding sequence), TSA 500 ng/ml
  transcriptional induction by TSA: did not take place
[5]; GAL4-DNSp3 (amino acids 399-653)
  TSA dependent transcriptional induction: no longer showed TSA dependent transcriptional induction
[5]; GAL4-Sp3 (1-80)
  TSA dependent transcriptional induction: induction due to TSA treatment disappeared
[5]; GAL4-Sp3 (1-398)
  TSA dependent transcriptional induction: stronger than with GAL4-Sp3
[5]; GAL4-Sp3 (81-160) alone
  TSA dependent transcriptional induction: almost no activity
[5]; GAL4-Sp3 (241-398)
  TSA dependent transcriptional induction: induction due to TSA treatment disappeared

## sodium phenylbutyrate
[6]
  remission of leukemia: complete remission
